In patent US20040077754A1, “Dental materials based on acrylic-ester phosphonic acids” (priority 2002, published 2004):

Conditions: 20% solution in D2O/EtOH-d6 (1:1), stabilized with 200 ppm 2,6-di-tbutyl-4-methylphenol, stored at 37° C., standing time 2 months
Method: In connection with the present invention, compounds which are stable in water or in mixtures of water and water-miscible solvents in a concentration of approx. 20 wt.-% and a pH value of approx. 2.0 at 37° C. for at least 6 weeks, i.e. hydrolyze to less than 1%, are described as hydrolysis-stable.
A 20% solution of MAPA, stabilized with 200 ppm 2,6-di-tbutyl-4-methylphenol, was prepared in D2O/EtOH-d6 (1:1), stored at 37° C. and ^1H-NMR-spectroscopically examined. After a standing time of 2 months, no changes in the ^1H-NMR-spectrum were able to be detected.

C=C(COCCP(=O)(O)O)C(=O)Oc1c(C)cc(C)cc1C [MAPA]
Hydrolysis stability: changes in the 1H-NMR spectrum: no changes
